Test results as given in patent US20130065818A1, “Arylamide Compounds And Compositions And Uses Thereof” (POLYMEDIX, priority 2006, published 2013).
≈ marks a conversion by molar mass, not a printed value.

Test system: Fluoroquinolone-Resistant Methicillin-Resistant Staphylococcus aureus Strain K950
Assay: MIC characterization of strain K950
Assay type: cell-based
Conditions: read-out: MIC (Minimum Inhibitory Concentration)

Compound `N=C(N)NCCCCC(=O)Nc1cc(C(F)(F)F)cc(NC(=O)c2cc(C(=O)Nc3cc(C(F)(F)F)cc(NC(=O)CCCCNC(=N)N)c3SCCN)ncn2)c1SCCN` [Oligomer 2] has an MIC of 0.25 µg/mL (≈ 0.273 µM).
